Values of other authors in paper PMC10499419 (Clinical and Translational Science, 2023).

Tested on: healthy subjects

## CN1C(=O)[C@@H](NC(=O)c2nnc(Cc3ccccc3)[nH]2)COc2ccccc21 [GSK2982772]
  Tolerability in healthy subjects: well‐tolerated
